Experimental findings from PubChem BioAssay AID330 (DTP/NCI, 2004) are described below.

Where “and” joins values, the source holds several entries; their conditions need not be identical. Identical values can stand only once. Toxic doses and inconclusive results are not listed.

The subject of this test is P388 leukemia ip, CD2F1 mice, survival T/C. Kind of test: NCI In Vivo Anticancer Drug Screen. Data for tumor model P388 Leukemia (intraperitoneal) in CD2F1 (CDF1) mice. Particulars: endpoint: median survival time, higher = longer survival. Put shortly: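 Mice carrying the transplanted tumor received test compound or vehicle. Survival was recorded in each group, and the value is the treated-group measurement divided by that of the vehicle-treated control group.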

The mark [1] stands for this setting: dose: 100.0 mg/kg/injection, schedule: Q01DX005 (ip), vehicle: saline.
The mark [2] stands for this setting: dose: 50.0 mg/kg/injection, schedule: Q01DX009 (ip), vehicle: saline with Tween-80.
Setting [3] is: dose: 100.0 mg/kg/injection, schedule: Q01DX009 (ip), vehicle: saline with Tween-80.
Setting [4] is: dose: 200.0 mg/kg/injection, schedule: Q01DX009 (ip), vehicle: saline with Tween-80.
Setting [5] is: dose: 25.0 mg/kg/injection, schedule: Q01DX005 (ip), vehicle: Klucel (hydroxypropylcellulose) (HPC).
[6] abbreviates: dose: 50.0 mg/kg/injection, schedule: Q01DX005 (ip), vehicle: saline with Tween-80.
Setting [7] is: dose: 100.0 mg/kg/injection, schedule: Q01DX005 (ip), vehicle: saline with Tween-80.
The mark [8] stands for this setting: dose: 200.0 mg/kg/injection, schedule: Q01DX005 (ip), vehicle: saline with Tween-80.
Where [9] appears, read: dose: 50.0 mg/kg/injection, schedule: Q01DX005 (ip), vehicle: Klucel (hydroxypropylcellulose) (HPC).
Where [10] appears, read: dose: 100.0 mg/kg/injection, schedule: Q01DX005 (ip), vehicle: Klucel (hydroxypropylcellulose) (HPC).
Where [11] appears, read: dose: 200.0 mg/kg/injection, schedule: Q01DX005 (ip), vehicle: Klucel (hydroxypropylcellulose) (HPC).
Setting [12] is: dose: 100.0 mg/kg/injection, schedule: Q04DX002 (ip), vehicle: saline with Tween-80.
Where [13] appears, read: dose: 200.0 mg/kg/injection, schedule: Q04DX002 (ip), vehicle: saline with Tween-80.
Setting [14] is: dose: 400.0 mg/kg/injection, schedule: Q04DX002 (ip), vehicle: saline with Tween-80.

Regarding `CC(=O)C1(O)CCC2(O)C3(O)CC=C4CC(O)CCC4(C)C3CC(OC(=O)c3ccc(O)cc3)C12C` (centres undefined), the T/C is 93 % of control (dose: 11.75 mg/kg/injection, schedule: Q01DX005 (ip), vehicle: distilled water + Tween-80 + alcohol); 94 % of control (dose: 23.5 mg/kg/injection, schedule: Q01DX005 (ip), vehicle: distilled water + Tween-80 + alcohol); 95 % of control (dose: 47.0 mg/kg/injection, schedule: Q01DX005 (ip), vehicle: distilled water + Tween-80 + alcohol); 94 % of control (dose: 94.0 mg/kg/injection, schedule: Q01DX005 (ip), vehicle: distilled water + Tween-80 + alcohol).

As to `O=C1c2ccccc2-c2n[nH]c3cccc1c23`, the T/C was 101 % of control (dose: 50.0 mg/kg/injection, schedule: Q01DX009 (ip), vehicle: Klucel (hydroxypropylcellulose) (HPC)); 102 % of control (dose: 100.0 mg/kg/injection, schedule: Q01DX009 (ip), vehicle: Klucel (hydroxypropylcellulose) (HPC)); 96 % of control (dose: 200.0 mg/kg/injection, schedule: Q01DX009 (ip), vehicle: Klucel (hydroxypropylcellulose) (HPC)); 95 % of control (dose: 400.0 mg/kg/injection, schedule: Q01DX009 (ip), vehicle: Klucel (hydroxypropylcellulose) (HPC)).

Consider `CC(C)C/C=N\N=C(N)N`, for which the T/C runs as follows: (dose: 50.0 mg/kg/injection, schedule: Q01DX005 (ip), vehicle: saline) 100 % of control; under setting [1], 100 % of control.

Regarding `Cc1ccc(-c2nc3ccccc3c(=O)n2/N=C/c2ccccc2O)cc1`, the T/C by setting is: under setting [2], 101 % of control; under setting [3], 100 % of control; under setting [4], 93 % of control.

`C1CCN2COCC2C1` (centres undefined): the T/C is, setting by setting: (dose: 12.5 mg/kg/injection, schedule: Q01DX005 (ip), vehicle: saline) 108 % of control; (dose: 25.0 mg/kg/injection, schedule: Q01DX005 (ip), vehicle: saline) 117 % of control; under setting [1], 120 % of control and 122 % of control.

For `CC(C)C1CCC2(C)OC2C1=O` (centres undefined), the T/C runs as follows: (dose: 25.0 mg/kg/injection, schedule: Q04DX002 (ip), vehicle: saline) 100 % of control; (dose: 50.0 mg/kg/injection, schedule: Q04DX002 (ip), vehicle: saline) 98 % of control; (dose: 100.0 mg/kg/injection, schedule: Q04DX002 (ip), vehicle: saline) 100 % of control and 101 % of control; (dose: 200.0 mg/kg/injection, schedule: Q04DX002 (ip), vehicle: saline) 100 % of control; (dose: 400.0 mg/kg/injection, schedule: Q04DX002 (ip), vehicle: saline) 112 % of control.

Take `N#C/C(=C\c1ccccc1)c1ccc(Cl)cc1`: the T/C reads like this: under setting [2], 105 % of control and 97 % of control; under setting [3], 106 % of control and 91 % of control; under setting [4], 113 % of control and 96 % of control; (dose: 400.0 mg/kg/injection, schedule: Q01DX009 (ip), vehicle: saline with Tween-80) 103 % of control and 97 % of control.

Consider `O=C1OCCC(O)=C1C=Nc1ccccc1`, for which the T/C was 108 % of control (dose: 6.25 mg/kg/injection, schedule: Q01DX005 (ip), vehicle: Klucel (hydroxypropylcellulose) (HPC)); 112 % of control (dose: 12.5 mg/kg/injection, schedule: Q01DX005 (ip), vehicle: Klucel (hydroxypropylcellulose) (HPC)); 117 % of control under setting [5]; 100 % of control (dose: 100.0 mg/kg/injection, schedule: Q01DX001 (ip), vehicle: Klucel (hydroxypropylcellulose) (HPC)); 97 % of control (dose: 200.0 mg/kg/injection, schedule: Q01DX001 (ip), vehicle: Klucel (hydroxypropylcellulose) (HPC)); 99 % of control (dose: 400.0 mg/kg/injection, schedule: Q01DX001 (ip), vehicle: Klucel (hydroxypropylcellulose) (HPC)).

On to `CN(C)CCO[Si](C)(C)[CH2][Sn]([CH3])([CH3])[CH3]`, for which the T/C is 108 % of control (dose: 60.0 mg/kg/injection, schedule: Q01DX005 (ip), vehicle: saline) and 105 % of control (dose: 120.0 mg/kg/injection, schedule: Q01DX005 (ip), vehicle: saline).

On to `NC(CCC(=O)O)C(=O)NC(Cc1c[nH]c2ccccc12)C(=O)O` (centres undefined), for which the T/C is 103 % of control under setting [6], 96 % of control under setting [7] and 105 % of control under setting [8].

Regarding `C=C(C)C1Cc2cc(C(C)=O)c(O)c(OC)c2O1` (centres undefined), the T/C was 101 % of control under setting [5], 108 % of control under setting [9], 97 % of control under setting [10] and 99 % of control under setting [11].

Regarding `CCOC(=O)C1CCc2ccccc2N1` (centres undefined), the T/C by setting is: under setting [6], 99 % of control; under setting [7], 103 % of control; under setting [8], 104 % of control.

`C=CCOc1cc2c(cc1C(C)c1ccc(OCC)cc1)OCO2` (centres undefined): the T/C was 100 % of control and 104 % of control under setting [6]; 112 % of control and 91 % of control under setting [7]; 122 % of control and 123 % of control under setting [8].

As to `CCOC(=O)CC(C)=Nc1c(SC)sc(C#N)c1N`, the T/C under setting [12] is 97 % of control, the T/C under setting [13] is 95 % of control and the T/C under setting [14] is 91 % of control.

With `O=C(Nc1ccc(Cl)cc1)Nc1nnc2nc(C(C(=O)c3ccc(O)cc3O)c3nc4nnc(NC(=O)Nc5ccc(Cl)cc5)n4[nH]c3=O)c(=O)[nH]n12`, the T/C runs as follows: (dose: 60.0 mg/kg/injection, schedule: Q01DX005 (ip), vehicle: saline with Tween-80) 103 % of control; (dose: 120.0 mg/kg/injection, schedule: Q01DX005 (ip), vehicle: saline with Tween-80) 95 % of control.

For `CCOc1c(N=Nc2cccc([N+](=O)[O-])c2)c(C)nn1C(=S)S`, the T/C (dose: 60.0 mg/kg/injection, schedule: Q01DX005 (ip), vehicle: Klucel + Tween-80) is 97 % of control; the T/C (dose: 120.0 mg/kg/injection, schedule: Q01DX005 (ip), vehicle: Klucel + Tween-80) is 97 % of control; the T/C (dose: 240.0 mg/kg/injection, schedule: Q01DX005 (ip), vehicle: Klucel + Tween-80) is 98 % of control.

For the molecule `CN1C(=O)C2C=CC1C1C(=O)N(c3ccc([N+](=O)[O-])cc3)C(=O)C21` (centres undefined), the T/C reads like this: under setting [12], 103 % of control; under setting [13], 95 % of control; under setting [14], 95 % of control.

Take `Cc1ccc(S(=O)(=O)N=C(N(C)C)N(C)C)cc1`: the T/C is, setting by setting: under setting [12], 99 % of control; under setting [13], 100 % of control; under setting [14], 104 % of control.

`O=C1C(CO)=C[C@H](O)[C@H]2O[C@@H]12`: the T/C (dose: 6.25 mg/kg/injection, schedule: Q01DX009 (ip), vehicle: saline + alcohol) is 119 % of control; the T/C (dose: 12.5 mg/kg/injection, schedule: Q01DX009 (ip), vehicle: saline + alcohol) is 152 % of control; the T/C (dose: 25.0 mg/kg/injection, schedule: Q01DX009 (ip), vehicle: saline + alcohol) is 152 % of control and 157 % of control; the T/C (dose: 50.0 mg/kg/injection, schedule: Q01DX009 (ip), vehicle: saline + alcohol) was 106 % of control.

Turning to `Cc1ccc(C)c2c1C(O)(C#Cc1ccccc1)c1ccccc1C2(O)C#Cc1ccccc1` (centres undefined), the T/C reads like this: under setting [2], 86 % of control; under setting [3], 86 % of control.

For `N=C(N)c1ccc(Oc2ccc(Oc3ccc(C(=N)N)cc3)cc2)cc1`, the T/C reads like this: (dose: 3.13 mg/kg/injection, schedule: Q01DX009 (ip), vehicle: saline with Tween-80) 109 % of control; (dose: 3.13 mg/kg/injection, schedule: Q01DX009 (ip), vehicle: saline) 102 % of control; (dose: 6.25 mg/kg/injection, schedule: Q01DX009 (ip), vehicle: saline with Tween-80) 109 % of control; (dose: 6.25 mg/kg/injection, schedule: Q01DX009 (ip), vehicle: saline) 113 % of control; (dose: 12.5 mg/kg/injection, schedule: Q01DX009 (ip), vehicle: saline with Tween-80) 124 % of control.

Consider `COc1ccc(-c2cc(-c3ccc(OC)cc3)nc(-c3ccc(OC)cc3)c2)cc1`, for which the T/C is 98 % of control under setting [9], 94 % of control under setting [10] and 89 % of control under setting [11].
